We go through 6 molecules from US20260234107A1, “TRYPTAMINES AND METHODS OF TREATING MOOD DISORDERS” (priority 2022, published 2026).

pEC50: −log10 of the molar value.

Series [1] deals with monoamine oxidase A and B (MAO-A and MAO-B). In words: Stability in the presence of monoamine oxidases (human liver mitochondria preparation). Details: half-life / microsomal CLint: dose or concentration left out as unconfirmed. Conditions: for stability in the presence of MAO (in words): human liver mitochondria preparation; for Remaining (t = 60 min) / half-life / microsomal CLint: human liver mitochondria; for half-life / microsomal CLint: human, pH 7.4; for CLint(MAO) / t1/2: human liver mitochondria 0.30 mg protein/mL, 37° C. Here is the method:
Liver Mitochondria Incubations. Human liver mitochondria (Xenotech H0610.M) were used.

Series [2] can be described thus: Stability in mouse brain homogenate. The format is in vitro ADME, male CD-1 mice. The following applies: mouse brain homogenate, 1 μM, 37° C.; for half-life at 1 µM: male, CD-1. As for the experimental part:
Disclosed compounds were tested for stability in mouse brain homogenate (Table 7). There was widely variable stability among the test compounds under the conditions of the experiment.
(§1) Mouse Brain Homogenate Stability. Frozen mouse brain homogenate (pooled from male CD-1 mice, BioreclamationIVT, MSE00BRAINMZA) was thawed in a water bath at 37° C. immediately prior to use. Positive controls and test compounds (final concentration in incubation medium=1 μM for test compounds and 2 μM for controls, all with 2% DMSO) were incubated in duplicate for each time point (0, 10, 30, 60, and 120 min) in the mouse brain homogenate at a total reaction volume of 100 μL at 37° C. At the end of each incubation period, reactions were immediately quenched with 400 μL of acetonitrile containing internal standard (200 ng/mL tolbutamine and 200 ng/mL labetalol) and mixed thoroughly. Plates were then sealed, shaken for 20 min, and centrifuged at 4,000 rpm and 4° C. for 20 min. Aliquots of 50 μL of each supernatant were diluted into 100 μL of water and the mixtures were then shaken again for 10 min.

A short description of series [3]: Stability in rat brain homogenate. The format is in vitro ADME, male Sprague Dawley rats. The following applies: rat brain homogenate, 1 μM, 37° C.; for half-life at 1 µM: male, Sprague Dawley. Here is the method: Disclosed compounds were tested for stability in rat brain homogenate (Table 8). There was widely variable stability among the test compounds under the conditions of the experiment.
as §1, with “Rat” for “Mouse”, “rat” for “mouse”, “Sprague Dawley rats,” for “CD-1 mice,”, “RAT00BRAINMZA)” for “MSE00BRAINMZA)”

Series [4] can be described thus: Metabolic stability in human liver microsomes (HLM). On the set-up: microsomal CLint / half-life: dose or concentration left out as unconfirmed. Conditions: both, human, pooled human liver microsomes, pH 7.4. On the technique in general: Liver microsomes are a subcellular fraction often used to study metabolism.
Series [5] can be described thus: Plasma pharmacokinetics in rats after intravenous administration. The following applies: for AUC(0-t) / C0 / half-life: male, Sprague Dawley, rat, plasma, iv, 1 mg/kg; for plasma half-life (in words): rats, IV 1 mg/kg.
Series [6] has as its target T1, 5-HT1A (Homo sapiens, UniProt P08908).
T1 construct: host or cells: CHO cells
T1 sequence (P08908 1-422): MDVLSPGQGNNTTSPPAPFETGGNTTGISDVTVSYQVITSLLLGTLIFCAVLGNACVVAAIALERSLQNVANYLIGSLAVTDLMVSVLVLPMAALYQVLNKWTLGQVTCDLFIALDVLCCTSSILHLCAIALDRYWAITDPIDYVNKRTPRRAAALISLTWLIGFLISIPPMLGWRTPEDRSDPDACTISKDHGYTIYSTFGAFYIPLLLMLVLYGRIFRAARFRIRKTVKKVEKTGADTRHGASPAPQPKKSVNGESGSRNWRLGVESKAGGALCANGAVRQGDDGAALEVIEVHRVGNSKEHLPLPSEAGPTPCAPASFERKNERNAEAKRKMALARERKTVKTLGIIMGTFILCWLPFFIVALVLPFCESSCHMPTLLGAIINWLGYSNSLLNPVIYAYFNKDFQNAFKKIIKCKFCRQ
In words: FLIPR Ca2+ flux agonist assay at 5-HT1A. In kind it is cell-based. The following applies: for 5-HT1A % Act @ Max Dose: Ca2+ flux, CHO cells. As for the experimental part: A solution of 250 mM probenecid in 1 mL FLIPR assay buffer was prepared fresh. This was combined with a fluorescent dye (Fluo-4 Direct™) to make a final assay concentration of 2.5 mM. […] The fluorescent dye was then added to the assay plate along with assay buffer to a final volume of 40 μL. The cell plate was incubated for 50 min at 37° C. and 5% CO2 and placed into the FLIPR Tetra along with the compound plate. 10 μL of references and compounds were then transferred from the compound plate into the cell plate and the fluorescent signal was read.

The test system of series [7] is rat synaptosomes. Kind of series: Serotonin (5-HT) release from rat synaptosomes. The format is biochemical, Male Sprague-Dawley rats. Conditions: for pEC50: rat synaptosomes preloaded with [3H]5-HT; for % Release @ Max Dose (10 μM): rat synaptosomes. Here is the method:
Disclosed compounds were assessed for their ability to release serotonin (5-HT) from […] (Table 9). Potency and efficacy for 5-HT release varied substantially depending on the specific compound. […] However, there was also substantial variability among 4-hydroxy compounds.
Synaptosome 5-HT Release Assay. Synaptosome release assays were conducted according to modifications of previously described procedures (Partilla et al. (2016). Interrogating the Activity of Ligands at Monoamine Transporters in Rat Brain Synaptosomes. In Neurotransmitter Transporters (pp. 41-52). Springer.). Briefly, synaptosomes were prepared from rat brains. Male Sprague-Dawley rats were rendered unconscious with CO2 and their brains were immediately removed. The cerebella were discarded and the whole brains (minus striatum) were placed in ice-cold 0.32 M sucrose (10 mL per brain) and gently homogenized by hand. The homogenate of each brain was centrifuged at 1,000×g at 4° C. for 10 mins and the resulting supernatant was diluted with ice-cold 0.32 M sucrose to a total volume of 10 mL to provide the synaptosome solution. Synaptosomes were then preloaded with 5 nM [^3H]5-HT in the presence of selective uptake inhibitors of DAT (50 nM GBR12935), NET (100 nM nomifensine), and VMAT2 (1 μM reserpine) in Krebs phosphate buffer (KPB). The incubations were allowed to reach equilibrium for 2 h at 25° C. For the release reactions, 425 μL of preloaded synaptosomes were added to test tubes containing 75 μL of test drugs diluted in KPB containing 1 mg/mL BSA. After 10 mins, the release reaction was stopped using a cell harvester by rapid vacuum filtration over GF/B filter paper presoaked in wash buffer (10 mM Tris-HCl, pH 7.4, 150 mM NaCl) and the filters were washed with additional wash buffer. Filters were dried for 1 h at 60° C. and retained radioactivity was quantified using a MicroBeta 2 liquid scintillation counter. The amount of retained radioactivity was inversely proportional to the extent of release.

Turning to `CNCCc1c[nH]c2cccc(O)c12` [Compound 2, 3-(2-(methylamino)ethyl)-1H-indol-4-ol], in series [1], the “stability in the presence of MAO (in words)” value (shortened to “stability in the presence”) was “highly unstable”, the “Remaining (t = 60 min)” value is given as 12.8%, the half-life (usually the time in which the quantity being followed falls by half) is 0.312 h and the microsomal CLint (usually the rate of metabolic loss divided by the concentration) was 124 µL/min/mg. In series [2], the half-life at 1 µM amounted to 0.233 h and the “% Compound Remaining (after 120 min)” value amounted to 0.2%. Besides, in series [3], the half-life at 1 µM came out at 0.105 h and the “% Compound Remaining (after 120 min)” value amounted to 0.2%. In addition, in series [4], the half-life came out at 0.22 h and the microsomal CLint came out at 105 µL/min/mg. Further, in series [5], the AUC(0-t) (in general, exposure summed from dosing to a finite time, without extrapolation to infinity) came to 21 ng·h/mL; the C0 stood at 185 ng/mL; the half-life was 0.18 h; the “plasma half-life (in words)” value was “very short half-lives”.

Turning to `CCCNCCc1c[nH]c2cccc(O)c12` [Compound 3, 3-(2-(propylamino)ethyl)-1H-indol-4-ol], in series [1], the “stability in the presence” value is listed as “highly stable”, the “Remaining (t = 60 min)” value is reported as 97.3%, the half-life is over 2.42 h and the microsomal CLint is under 15.9 µL/min/mg. Also, in series [6], the pEC50 – broadly, −log10 of the EC50, conventionally taken in molar units – was 4.48 and the “5-HT1A % Act @ Max Dose” value was 10.7%. In series [2], the half-life at 1 µM stood at 1.21 h and the “% Compound Remaining (after 120 min)” value was determined as 29.2%. Also, in series [3], the half-life at 1 µM was determined as 2.28 h and the “% Compound Remaining (after 120 min)” value came to 52.5%. For the same molecule, in series [7], the pEC50 was under 5.00 and the “% Release @ Max Dose (10 μM)” value is given as 36.06%. In addition, in series [4], the half-life is 1.99 h and the microsomal CLint is 11.6 µL/min/mg.

With `CCNCCc1c[nH]c2cccc(O)c12` [Compound 5, 3-(2-(ethylamino)ethyl)-1H-indol-4-ol], in series [1], the “Remaining (t = 60 min)” value is recorded as 76.2%, the half-life was over 2.42 h and the microsomal CLint is under 15.9 µL/min/mg. Besides, in series [2], the half-life at 1 µM was determined as 3.06 h and the “% Compound Remaining (after 120 min)” value stood at 67.2%. In addition, in series [3], the half-life at 1 µM was determined as 2.63 h and the “% Compound Remaining (after 120 min)” value came out at 61.5%. Further, in series [7], the pEC50 was 5.39 and the “% Release @ Max Dose (10 μM)” value was determined as 53.8%. In series [4], the half-life was over 2.42 h and the microsomal CLint is under 9.6 µL/min/mg. In series [5], this molecule had an AUC(0-t) of 161 ng·h/mL, a C0 of 350 ng/mL and a half-life of 0.65 h.

In the case of `CC(C)NCCc1c[nH]c2cccc(O)c12` [Compound 6, 3-(2-(isopropylamino)ethyl)-1H-indol-4-ol], in series [1], the “Remaining (t = 60 min)” value is on record as 80.5%, the half-life is over 2.42 h and the microsomal CLint was under 15.9 µL/min/mg. Further, in series [6], the negative-log EC50 (pEC50) is under 4.00 and the “5-HT1A % Act @ Max Dose” value is 10.15%. Besides, in series [2], the half-life at 1 µM was determined as 2.71 h and the “% Compound Remaining (after 120 min)” value was determined as 62.6%. In series [3], the half-life at 1 µM came out at 2.27 h and the “% Compound Remaining (after 120 min)” value came out at 53.8%. Moreover, in series [7], the pEC50 is under 5.00 and the “% Release @ Max Dose (10 μM)” value was found to be 32.8%. Further, in series [4], the half-life was over 2.42 h and the microsomal CLint was under 9.6 µL/min/mg.

In the case of `CN(C)CCc1c[nH]c2ccccc12` [DMT, N,N-dimethyltryptamine, reference compound], in series [1], the “CLint(MAO)” value was 134.9 µL/min/mg, the t1/2 came to 0.285 h, the “stability in the presence” value is “rapidly metabolized by MAO” and the “Remaining (t = 60 min)” value is given as 8.9%. In addition, in series [2], the t1/2 is 0.107 h and the “% Compound Remaining (after 120 min)” value is reported as 0.0%. Moreover, in series [3], the t1/2 was 0.085 h and the “% Compound Remaining (after 120 min)” value was found to be 0.0%. Moreover, in series [7], the negative-log EC50 (pEC50) was 7.09 and the “% Release @ Max Dose (10 μM)” value is given as 80.77%.

With `CN(C)CCc1c[nH]c2cccc(O)c12` [Psilocin, psilocin, reference compound], in series [1], the “CLint(MAO)” value is under 15.9 µL/min/mg, the t1/2 was over 2.42 h, the “stability in the presence” value is on record as “stable” and the “Remaining (t = 60 min)” value is recorded as 112.1%. Further, the “5-HT1A % Act @ Max Dose” value in series [6] was found to be 0.720%. For the same molecule, in series [2], the t1/2 is over 4.818 h and the “% Compound Remaining (after 120 min)” value was 97.6%. Besides, in series [3], the t1/2 came out at 1.913 h and the “% Compound Remaining (after 120 min)” value was 46.1%. Moreover, in series [5], the AUC(0-t) turned out to be 146 ng·h/mL, the C0 was 179 ng/mL, the half-life is 1.56 h and the “plasma half-life (in words)” value is recorded as “much longer half-lives”.
